Results: publication PMC7169845, “Synthesis and Bioactivity of Phthalimide Analogs as Potential Drugs to Treat Schistosomiasis, a Neglected Disease of Poverty” (Pharmaceuticals, 2020)

Experiments:
[1] = test system: S. mansoni somules (schistosomula, post-infective larvae); assay: Phenotypic screen of S. mansoni somules (severity score); type: cell-based, Schistosoma mansoni; conditions: for Somule Severity Score (10 µM) 24 h: score 0 (no effect) to 4 (maximum), averaged across two experiments; for Somule Severity Score (10 µM) 24 h / SOMULE SEVERITY SCORES @ 10 µM, 24: 24 h; for SOMULE SEVERITY SCORES @ 10 µM, 24 / SOMULE SEVERITY SCORES @ 10 µM, 48 / SOMULE SEVERITY SCORES @ 10 µM, 72: score 0-4; for SOMULE SEVERITY SCORES @ 10 µM, 48 / Somule Severity Score (10 µM) 48 h: 48 h; for Somule Severity Score (10 µM) 48 h / Somule Severity Score (10 µM) 72 h: score 0 to 4
Description: (§1) Functionalized Pht-based molecules were synthesized, and phenotypically screened at 10 µM as a function of time against S. Mansoni somules (up to 72 h) and adults (up to 24 h). The resulting phenotypes were classified using a previously described nomenclature that records the many non-exclusive changes (descriptors) that can occur in the parasite in response to chemical insult. Each descriptor is converted into a value from 0 (no effect) to 4 (maximal effect) to allow for comparisons of effects on the parasite between compounds [40, 41, 42, 43]. For consistency, we consider a score of 2 to be the minimum for a compound to be considered active.
(§2) Maintenance of the S. mansoni (Naval Medical Research Institute (NMRI) isolate), life cycle involved male Golden Syrian Hamsters and Biomphalaria glabrata snails (NMRI isolate), as the definitive and intermediate hosts, respectively. Use of hamsters was approved by the Institutional Animal Care and Use Committee of the University of California San Diego. The preparation of somules (post-infective larvae derived from infectious larvae called cercariae) and adult worms (≥42-days-old), and their co-incubation with test compounds using a customized Basch incubation medium were as described. Screens of two developmental stages were employed in order to identify compounds with a potential broader spectrum of efficacy than the current drug, PZQ, which is deficient in this regard. Screens with somules employed 96-well round-bottomed plates and 40–50 animals/well, whereas screens with adults employed 24-well flat-bottomed plates and approximately 5–7 males and 2–3 females/well. Screens employed a final compound concentration of 10 µM in DMSO (at 0.5% and 0.1% final concentrations for somules and adults, respectively). The complex and often dynamic phenotypic responses that the schistosome parasite is capable of were observed using an Axiovert A1 inverted microscope at the times indicated in the data table. Observations were codified using a defined nomenclature that involves simple “descriptors”, to convey changes in shape, motility and appearance compared to DMSO controls. Each descriptor was given a value of 1 and these were added up to yield a “severity score” with a maximum of 4. Evidence of degeneracy or death was awarded a value of 4 for adult parasites specifically, the inability to adhere to the bottom of the well using oral or ventral suckers was given a score of 1 and damage to the tegument (surface) was awarded a value of 4 on the understanding that such damage in vivo would compromise survival. Scores were averaged across the two experiments.

[2] = test system: HepG2-A16-CD81EGFP cells; assay: HepG2 cell cytotoxicity assay (CellTiter-Glo); type: cell-based; conditions: Homo sapiens, 72 h; for EC50: counter toxicity
Description: HepG2-A16-CD81EGFP cells (human hepatocarcinoma HepG2 cells stably transformed to express the tetraspanin CD81 receptor [51, 52]) were cultured at 37 °C in 5% CO2 in DMEM (without phenol red; Thermo Fisher Scientific, Waltham, MA, USA) supplemented with 10% FBS, 0.29 mg/mL glutamine, 100-unit penicillin and 100 μg/mL streptomycin. For cytotoxicity assays, compounds were prepared in 12-point 1:3 serial dilutions in DMSO starting at 10 mM. Then, 50 nL of compound (0.5% final DMSO concentration) were transferred with an Acoustic Transfer System (ATS) (Biosero) into white, solid bottom 1536-well assay plates (Greiner BioOne custom GNF mold; Monroe, NC, USA). Puromycin (12-point serial dilution starting at 10 μM) and 0.5% DMSO were used as positive and negative controls, respectively. After addition of compound, HepG2-A16-CD81EGFP cells in 10 µL of the above medium (5% FBS) were seeded into the assay plates at a density of 3,000 cells per well. Assay plates were incubated at 37 °C in 5% CO2for 72 h. To assess the HepG2 viability, the assay medium was removed by inverted centrifugation of the plate at 150 xg for 30 s. Then, 2 μL per well of CellTiter-Glo reagent (Promega diluted 1:2 with deionized water) was added using a MicroFlo liquid handler (BioTek). Immediately after addition of the CellTiter-Glo reagent, the luminescence was measured with an EnVision Multilabel reader (PerkinElmer). EC50 values were calculated using the normalized bioluminescence intensity and a non-linear, variable slope, four-parameter regression curve-fitting model in Prism 5 (GraphPad Software Inc., San Diego, CA, USA).

[3] = test system: S. mansoni adults; assay: Phenotypic screen of S. mansoni adult worms (severity score); type: cell-based, Schistosoma mansoni; conditions: for ADULT SEVERITY SCORES @ 10 µM, 1 h / ADULT SEVERITY SCORES @ 10 µM, 5 h / ADULT SEVERITY SCORES @ 10 µM, 24 h: score 0-4; for Adult Severity Score (10 µM) 1 h / Adult Severity Score (10 µM) 5 h / Adult Severity Score (10 µM) 24 h: score 0 to 4
Description: as §1, §2

Compound | Somule Severity Score (10 µM) 24 h [1] | SOMULE SEVERITY SCORES @ 10 µM, 24 [1] | SOMULE SEVERITY SCORES @ 10 µM, 48 [1] | Somule Severity Score (10 µM) 48 h [1] | SOMULE SEVERITY SCORES @ 10 µM, 72 ([1]; 72 h) | Somule Severity Score (10 µM) 72 h ([1]; 72 h) | IC50 [2] [µM] | EC50 [2] [µM] | ADULT SEVERITY SCORES @ 10 µM, 1 h [3] | Adult Severity Score (10 µM) 1 h [3] | ADULT SEVERITY SCORES @ 10 µM, 5 h ([3]; 5 h) | Adult Severity Score (10 µM) 5 h ([3]; 5 h) | ADULT SEVERITY SCORES @ 10 µM, 24 h ([3]; 24 h) | Adult Severity Score (10 µM) 24 h ([3]; 24 h) | SOMULE DESCRIPTORS @ 10 µM, 72 h ([1]; 72 h, phenotypic descriptors) | ADULT DESCRIPTORS @ 10 µM, 5 h ([3]; 5 h, phenotypic descriptors) | ADULT DESCRIPTORS @ 10 µM, 24 h ([3]; 24 h, phenotypic descriptors)
CCC(C)C(c1nc2ccccc2n1Cc1cn(-c2ccccc2F)nn1)N1C(=O)c2ccccc2C1=O (stereo not shown) [6v, 2-(1-(1-((1-(2-Fluorophenyl)-1H-1,2,3-triazol-4-yl)methyl)-1H-benzo[d]imidazol-2-yl)-2-methylbutyl)isoindoline-1,3-dione] | 0 | 0 | 0 | 0 | 0 | 0 | > 100 | > 100 | 0 | 0 | 0 | 0 | 0 | 0 |  |  | 
CCC(C)C(c1nc2ccccc2n1Cc1cn(-c2ccc(F)cc2F)nn1)N1C(=O)c2ccccc2C1=O (stereo not shown) [6w, 2-(1-(1-((1-(2,4-Difluorophenyl)-1H-1,2,3-triazol-4-yl)methyl)-1H-benzo[d]imidazol-2-yl)-2-methylbutyl)isoindoline-1,3-dione] | 0 | 0 | 0 | 0 | 2 | 2 | > 100 | > 100 | 0 | 0 | 2 | 2 | 2 | 2 | pD50 | Unc, on sides | Unc, on sides
